Data as given in ChEMBL document CHEMBL1201862, “PubChem BioAssay data set” (2004).
Calls of active or inactive are those of the source.

Tests used:
Phospholipase D2 = Phospholipase D2 (Homo sapiens, UniProt O14939); assay: cellular phospholipase D2 inhibition IC50 – cell-based, dose response (AID 602147); type: functional;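 note: cellular assay in HEK293 cells overexpressing GFP-tagged PLD2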
[1] = biological target: T1, Dual specificity protein phosphatase 3 (Homo sapiens, UniProt P51452); assay: SAR VHR1 Fluorescent Assay for In Vitro dose response studies Set 3. [Related pubchem assays (depositor defined):AID1654, AID1661, AID1878]; type: functional
Melanocortin receptor 4 = Melanocortin receptor 4 (Homo sapiens, UniProt P32245); assay: inhibitors of MC4R cAMP signaling – cell-based, TR-FRET, biased antagonists, dose response (AID 602298); type: functional;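 note: antagonist potency against agonist-stimulated cAMP production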
[2] = non-specific 3'UTR reporter inhibition in Clone20-Shn3RL – cell-based, Renilla luciferase, cherry-picked, counter-screen for Shn3 inhibitor project, dose response (AID 624133); type: functional
BJ [3] = assay: cells; type: functional, cell-based; conditions: Homo sapiens
[4] = general mammalian cell viability loss – inhibitor set, cherry-pick, set 2, cytotoxicity control for miR-122 modulator project, dose response (AID 720697); type: functional, cell-based
[5] = cAMP pathway inhibition in counterscreen cell line – TR-FRET cAMP detection, counter-screen for MC4R biased antagonist project, dose response (AID 602305); type: functional, cell-based;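 note: U2OS cells stimulated with forskolin near its EC80 as the cAMP inducer; potency is for inhibition of forskolin-stimulated cAMP signaling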
BJ [6] = assay: BJ-TERT fibroblast viability loss – cell-based, RAS-independent, luminescence, dose response (AID 1933); type: functional; conditions: Homo sapiens
[7] = loss of viability in HepG2 cells – cell-based, CellTiter-Glo, cherry-picked, cytotoxicity control for Shn3 inhibitor project, dose response (AID 624134); type: functional
[8] = biological target: T2, Microphthalmia-associated transcription factor (Homo sapiens, UniProt O75030); assay: reducers of TRPM1 reporter luminescence, concentration series – cell-based, SK-MEL-5, cherry-picked, set 3, MITF inhibitor project, dose response (AID 493073); type: functional;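 note: SK-MEL-5 melanoma cells with luciferase driven by the MITF target TRPM1 promoter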
T2 sequence (O75030 whole entry): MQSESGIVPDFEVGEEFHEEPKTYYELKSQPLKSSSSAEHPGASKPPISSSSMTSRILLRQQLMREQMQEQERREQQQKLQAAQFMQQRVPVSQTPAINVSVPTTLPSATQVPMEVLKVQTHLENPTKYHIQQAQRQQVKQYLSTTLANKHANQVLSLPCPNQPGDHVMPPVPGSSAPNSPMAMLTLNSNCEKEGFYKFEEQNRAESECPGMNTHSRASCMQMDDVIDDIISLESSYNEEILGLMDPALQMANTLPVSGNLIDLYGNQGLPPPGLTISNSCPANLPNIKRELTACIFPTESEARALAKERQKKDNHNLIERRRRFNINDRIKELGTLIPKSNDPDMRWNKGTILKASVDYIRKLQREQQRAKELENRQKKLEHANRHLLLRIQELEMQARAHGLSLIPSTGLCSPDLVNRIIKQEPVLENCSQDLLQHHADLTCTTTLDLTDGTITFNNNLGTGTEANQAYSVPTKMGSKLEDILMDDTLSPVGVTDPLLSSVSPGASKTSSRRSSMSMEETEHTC

[9] = activation of miR-122 Renilla sensor silencing – cell-based, Huh7 psiCHECK-miR122, Renilla luciferase, cherry-picked, dose response (AID 651956); type: functional;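 note: huh7 hepatoma cells stably carrying a psiCHECK-2 miR-122 sensor plasmid; renilla luciferase signal reporting endogenous miR-122 activity after 48 h compound exposure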
BJ [10] = assay: BJ-TERT-LT-ST fibroblast viability loss – cell-based, RAS-independent, luminescence, dose response (AID 1935); type: functional; conditions: Homo sapiens;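 note: BJ fibroblasts immortalized with TERT plus LT and ST oncogenes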
[11] = reduced cellular PGC1a acetyl-lysine signal – cell-based, cherry-picked samples, dose response (AID 720514); type: functional;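 note: potency may reflect raised or lowered acetylation signal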
[12] = HEK-293T viability loss, compound-treated – cell-based, uHTS hits, cytotoxicity control for B/T-cell NF-kB inhibitor project, dose response (AID 489019); type: functional;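 note: IC50 reflects cytotoxicity as loss of cell viability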
[13] = general mammalian cell viability loss – activator set, cherry-pick, cytotoxicity control for miR-122 modulator project, dose response (AID 720690); type: functional, cell-based;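 note: HEK293T human cells scored for general mammalian cytotoxicity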
[14] = reduction of Shn3 3'UTR-driven luciferase in osteoblasts – cell-based, Clone20 osteoblasts, firefly luciferase, cherry-picked, dose response (AID 624132); type: functional;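 note: firefly luciferase luminescence from reporter carrying the Shn3 3'UTR in osteoblasts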
[15] = DRD fibroblast viability loss – cell-based, non-viral oncogenic, luminescence, dose response (AID 1934); type: functional; conditions: Homo sapiens
A-375 = assay: proliferation inhibition in MITF-low A375 cells – cell-based, cherry-pick samples, set 2, counter-screen for MITF modulator project, dose response (AID 540335); type: functional; conditions: Homo sapiens
Jurkat = assay: blockers of NF-kB activation in T cells – Jurkat, luciferase reporter, luminescence, B- and T-cell, dose response (AID 489004); type: functional, cell-based; conditions: Homo sapiens;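 note: NF-kB luciferase reporter Jurkat cells stimulated with PMA plus ionomycin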
[16] = biological target: T1, Dual specificity protein phosphatase 3; assay: SAR VHR1 Fluorescent Assay for In Vitro dose response studies Set 2. [Related pubchem assays (depositor defined):AID1654, AID1661, AID1878]; type: functional
[17] = biological target: Tyrosine-protein phosphatase non-receptor type 12 (Homo sapiens, UniProt Q05209); assay: SAR Selectivity Analysis of small molecule inhibitors of PEST using pCAP in a fluorescence assay. [Related pubchem assays (depositor defined):AID1779, AID1784, AID2135]; type: functional
[18] = biological target: T3, Tyrosine-protein phosphatase non-receptor type 22 (Homo sapiens, UniProt Q9Y2R2); assay: inhibition of lymphoid tyrosine phosphatase LYP – biochemical, pCAP fluorogenic substrate, fluorescence, set 3, SAR follow-up (AID 449727); type: functional
[19] = biological target: T4, Tyrosine-protein phosphatase non-receptor type 7 (Homo sapiens, UniProt P35236); assay: inhibition of hematopoietic tyrosine phosphatase HePTP – biochemical, set 2, SAR follow-up (AID 449736); type: functional
[20] = biological target: T3, Tyrosine-protein phosphatase non-receptor type 22; assay: SAR LYP1 Fluorescent Assay using OMFP substrate for In Vitro dose response studies - Set 3. [Related pubchem assays (depositor defined):AID1779, AID1784, AID2140, AID2686]; type: functional
[21] = biological target: T4, Tyrosine-protein phosphatase non-receptor type 7; assay: redox-active compounds inhibiting HePTP phosphatase – biochemical, fluorescence, mechanism study (AID 2068); type: functional
[22] = biological target: Dual specificity protein phosphatase 6 (Rattus norvegicus, UniProt Q64346); type: functional;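 note: confirmatory in vitro dose-response testing of MKP-3 inhibition; recombinant His-tagged MKP-3 made in E. coli BL21 with OMFP substrate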
[23] = biological target: Lysine-specific demethylase 4A (Homo sapiens, UniProt O75164); assay: inhibition of JMJD2A H3K9me3 demethylation – biochemical, DELFIA europium, cherry-picked samples, selectivity assay for GASC-1 inhibitor project, dose response (AID 488840)
Chain of Lysine-specific demethylase 4A (O75164 whole entry): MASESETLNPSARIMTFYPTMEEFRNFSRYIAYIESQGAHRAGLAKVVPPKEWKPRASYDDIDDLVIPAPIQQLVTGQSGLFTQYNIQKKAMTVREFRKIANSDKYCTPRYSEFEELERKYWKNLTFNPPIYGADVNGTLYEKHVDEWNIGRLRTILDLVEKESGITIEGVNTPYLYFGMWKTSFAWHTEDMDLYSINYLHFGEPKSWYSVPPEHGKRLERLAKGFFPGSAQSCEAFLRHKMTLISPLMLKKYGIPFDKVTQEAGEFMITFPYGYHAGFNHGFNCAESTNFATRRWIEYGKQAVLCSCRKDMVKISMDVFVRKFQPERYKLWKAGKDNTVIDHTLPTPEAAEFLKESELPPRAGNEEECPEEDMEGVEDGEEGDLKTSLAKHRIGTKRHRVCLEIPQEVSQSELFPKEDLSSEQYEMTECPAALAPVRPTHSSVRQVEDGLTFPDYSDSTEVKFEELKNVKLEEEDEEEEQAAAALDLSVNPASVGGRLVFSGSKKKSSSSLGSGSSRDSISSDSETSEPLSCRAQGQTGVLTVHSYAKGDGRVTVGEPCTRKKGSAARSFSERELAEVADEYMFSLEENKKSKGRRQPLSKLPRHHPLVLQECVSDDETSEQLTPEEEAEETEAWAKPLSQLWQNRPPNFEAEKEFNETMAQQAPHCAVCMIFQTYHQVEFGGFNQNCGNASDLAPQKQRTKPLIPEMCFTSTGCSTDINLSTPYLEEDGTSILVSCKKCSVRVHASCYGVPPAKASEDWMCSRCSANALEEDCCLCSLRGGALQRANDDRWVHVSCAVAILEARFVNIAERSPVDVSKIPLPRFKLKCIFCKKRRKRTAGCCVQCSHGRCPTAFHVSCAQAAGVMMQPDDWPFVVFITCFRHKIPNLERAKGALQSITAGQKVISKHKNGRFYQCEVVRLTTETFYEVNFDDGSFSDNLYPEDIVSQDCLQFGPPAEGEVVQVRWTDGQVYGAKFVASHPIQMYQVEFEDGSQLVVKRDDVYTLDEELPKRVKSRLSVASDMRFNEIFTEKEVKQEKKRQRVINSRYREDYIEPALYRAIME

T1 sequence (P51452 whole entry): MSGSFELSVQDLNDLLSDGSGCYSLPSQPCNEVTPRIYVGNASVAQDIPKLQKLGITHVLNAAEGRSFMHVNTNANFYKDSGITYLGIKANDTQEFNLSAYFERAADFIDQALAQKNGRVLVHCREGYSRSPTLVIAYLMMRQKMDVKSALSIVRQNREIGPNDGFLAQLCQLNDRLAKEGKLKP
T4 sequence (P35236 whole entry): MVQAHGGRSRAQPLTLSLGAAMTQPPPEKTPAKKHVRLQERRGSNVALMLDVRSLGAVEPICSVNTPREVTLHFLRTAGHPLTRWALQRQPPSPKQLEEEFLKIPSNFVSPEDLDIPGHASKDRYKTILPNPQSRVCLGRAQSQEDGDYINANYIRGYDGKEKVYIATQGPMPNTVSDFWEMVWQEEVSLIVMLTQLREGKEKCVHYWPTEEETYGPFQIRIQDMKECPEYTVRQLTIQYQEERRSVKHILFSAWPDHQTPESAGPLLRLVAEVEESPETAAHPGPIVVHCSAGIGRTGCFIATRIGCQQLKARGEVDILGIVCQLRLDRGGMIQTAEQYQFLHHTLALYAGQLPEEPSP
T3 sequence (Q9Y2R2 whole entry): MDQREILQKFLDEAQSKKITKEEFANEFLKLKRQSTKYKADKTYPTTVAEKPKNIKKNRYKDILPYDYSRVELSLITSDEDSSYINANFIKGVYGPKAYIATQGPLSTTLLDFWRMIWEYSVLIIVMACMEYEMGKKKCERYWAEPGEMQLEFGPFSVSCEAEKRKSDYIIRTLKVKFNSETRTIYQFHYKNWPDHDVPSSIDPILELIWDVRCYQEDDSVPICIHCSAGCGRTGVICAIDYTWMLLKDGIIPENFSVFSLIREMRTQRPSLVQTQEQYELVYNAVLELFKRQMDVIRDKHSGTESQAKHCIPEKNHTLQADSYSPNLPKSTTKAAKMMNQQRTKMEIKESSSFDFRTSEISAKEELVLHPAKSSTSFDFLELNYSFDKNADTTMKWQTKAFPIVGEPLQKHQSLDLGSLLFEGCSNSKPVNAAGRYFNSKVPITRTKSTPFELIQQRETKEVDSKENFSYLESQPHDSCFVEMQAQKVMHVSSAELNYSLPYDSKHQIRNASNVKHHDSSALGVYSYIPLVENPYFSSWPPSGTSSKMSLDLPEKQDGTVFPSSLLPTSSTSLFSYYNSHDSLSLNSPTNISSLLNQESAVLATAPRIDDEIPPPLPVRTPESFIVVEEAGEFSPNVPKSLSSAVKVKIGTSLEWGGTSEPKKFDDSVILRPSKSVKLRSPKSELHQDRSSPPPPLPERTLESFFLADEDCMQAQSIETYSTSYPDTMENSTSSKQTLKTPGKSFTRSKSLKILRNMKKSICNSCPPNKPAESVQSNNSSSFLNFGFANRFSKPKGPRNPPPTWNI
Chain of Tyrosine-protein phosphatase non-receptor type 12 (Q05209 whole entry): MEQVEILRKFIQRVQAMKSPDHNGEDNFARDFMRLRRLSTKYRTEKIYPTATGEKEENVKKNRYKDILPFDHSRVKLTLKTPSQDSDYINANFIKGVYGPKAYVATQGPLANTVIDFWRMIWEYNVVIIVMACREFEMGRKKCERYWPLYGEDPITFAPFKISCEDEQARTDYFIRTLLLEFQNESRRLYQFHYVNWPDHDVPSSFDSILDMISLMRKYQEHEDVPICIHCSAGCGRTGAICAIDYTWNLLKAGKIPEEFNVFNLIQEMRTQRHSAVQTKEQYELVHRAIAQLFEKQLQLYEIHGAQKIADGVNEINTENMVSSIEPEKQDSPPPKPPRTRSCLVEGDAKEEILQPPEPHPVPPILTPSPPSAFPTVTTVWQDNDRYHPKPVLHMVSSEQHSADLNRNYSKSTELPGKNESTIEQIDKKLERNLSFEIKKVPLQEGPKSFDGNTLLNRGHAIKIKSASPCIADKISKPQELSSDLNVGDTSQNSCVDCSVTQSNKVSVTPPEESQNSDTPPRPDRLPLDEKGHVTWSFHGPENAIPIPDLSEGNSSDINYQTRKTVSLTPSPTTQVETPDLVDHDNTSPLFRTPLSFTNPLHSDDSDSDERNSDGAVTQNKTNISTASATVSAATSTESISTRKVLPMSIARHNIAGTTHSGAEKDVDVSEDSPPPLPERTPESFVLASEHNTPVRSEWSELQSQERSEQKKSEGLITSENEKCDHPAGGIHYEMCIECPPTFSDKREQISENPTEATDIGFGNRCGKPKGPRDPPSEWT
Chain of Dual specificity protein phosphatase 6 (Q64346 whole entry): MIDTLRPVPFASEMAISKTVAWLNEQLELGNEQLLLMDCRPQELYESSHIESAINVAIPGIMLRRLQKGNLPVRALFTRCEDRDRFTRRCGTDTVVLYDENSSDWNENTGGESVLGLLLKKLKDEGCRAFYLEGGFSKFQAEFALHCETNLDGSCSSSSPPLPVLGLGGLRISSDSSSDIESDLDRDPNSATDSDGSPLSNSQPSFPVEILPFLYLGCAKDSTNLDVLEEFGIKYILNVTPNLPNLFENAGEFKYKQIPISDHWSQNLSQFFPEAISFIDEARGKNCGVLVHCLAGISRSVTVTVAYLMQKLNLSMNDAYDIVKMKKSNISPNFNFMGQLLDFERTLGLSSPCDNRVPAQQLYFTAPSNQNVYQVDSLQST
Chain of Phospholipase D2 (O14939 whole entry): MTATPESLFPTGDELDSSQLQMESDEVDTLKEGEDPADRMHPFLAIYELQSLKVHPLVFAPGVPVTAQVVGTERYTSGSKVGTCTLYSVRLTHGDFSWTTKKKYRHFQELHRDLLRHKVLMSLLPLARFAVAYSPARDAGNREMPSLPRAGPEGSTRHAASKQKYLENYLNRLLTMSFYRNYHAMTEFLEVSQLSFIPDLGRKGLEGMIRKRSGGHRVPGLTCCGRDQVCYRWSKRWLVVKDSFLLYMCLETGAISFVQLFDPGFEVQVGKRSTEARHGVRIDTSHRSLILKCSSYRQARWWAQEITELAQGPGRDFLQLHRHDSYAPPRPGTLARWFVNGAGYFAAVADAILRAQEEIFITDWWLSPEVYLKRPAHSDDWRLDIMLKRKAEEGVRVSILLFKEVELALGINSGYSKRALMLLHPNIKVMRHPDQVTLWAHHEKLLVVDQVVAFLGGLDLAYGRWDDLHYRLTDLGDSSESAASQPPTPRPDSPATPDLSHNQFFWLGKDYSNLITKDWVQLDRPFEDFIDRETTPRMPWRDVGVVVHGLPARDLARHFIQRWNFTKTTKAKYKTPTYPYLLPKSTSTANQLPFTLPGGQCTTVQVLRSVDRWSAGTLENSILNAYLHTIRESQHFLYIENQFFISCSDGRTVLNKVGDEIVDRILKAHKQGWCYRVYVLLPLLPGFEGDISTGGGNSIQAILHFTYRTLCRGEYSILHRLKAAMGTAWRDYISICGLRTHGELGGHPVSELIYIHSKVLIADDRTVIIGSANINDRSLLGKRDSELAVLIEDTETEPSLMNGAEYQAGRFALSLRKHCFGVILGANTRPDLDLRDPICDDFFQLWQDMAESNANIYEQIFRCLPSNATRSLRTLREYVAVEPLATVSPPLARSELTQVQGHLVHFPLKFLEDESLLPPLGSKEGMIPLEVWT
Chain of Melanocortin receptor 4 (P32245 whole entry): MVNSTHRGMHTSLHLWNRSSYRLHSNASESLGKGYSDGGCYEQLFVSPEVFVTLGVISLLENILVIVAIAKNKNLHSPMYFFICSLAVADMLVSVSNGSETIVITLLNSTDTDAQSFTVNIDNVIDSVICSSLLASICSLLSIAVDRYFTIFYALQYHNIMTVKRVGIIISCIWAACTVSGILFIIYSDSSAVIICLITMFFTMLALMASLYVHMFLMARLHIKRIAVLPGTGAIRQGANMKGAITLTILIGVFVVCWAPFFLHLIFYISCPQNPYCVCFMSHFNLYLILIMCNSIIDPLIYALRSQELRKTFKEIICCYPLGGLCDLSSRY

Question: For `Cc1cccc(C(=O)N[C@@H](C)CN2CCC3(CC2)C(=O)NCN3c2ccccc2)c1`, which IC50 (Phospholipase D2) is on record?
Answer: The IC50 was 20 µM (active).

Question: Which IC50 [1] does the source give for `Cc1cc(NC(=O)c2ccccc2Cl)ccc1NC(=O)CSc1nnc(-c2cccs2)n1C` here?
Answer: The IC50 was 25.3 µM (active).

Question: For `C#CC(=O)N(c1ccc(OC)c(OC)c1)C(C(=O)NC1CCCC1)c1cccs1` (configuration not stated), which IC50 (Melanocortin receptor 4) is on record?
Answer: Its IC50 is 2.51 µM (active).

Question: What about the AC50 [2] of the same compound?
Answer: The AC50 was 14.3 µM (active).

Question: What about the EC50 (BJ [3]) of the same compound?
Answer: The EC50 was 5.23 µM (inconclusive).

Question: And the AC50 [4]?
Answer: The AC50 was < 0.195 µM (active).

Question: What about the IC50 [5] of the same compound?
Answer: Its IC50 is > 64.6 µM (inactive).

Question: And the EC50 (BJ [6])?
Answer: Its EC50 is 0.171 µM (inconclusive).

Question: And the AC50 [7]?
Answer: Its AC50 is 2.4 µM (active).

Question: And the AC50 [8]?
Answer: Its AC50 is 3.31 µM (active).

Question: What about the AC50 [9] of the same compound?
Answer: The AC50 was 0.651 µM (active).

Question: What about the EC50 (BJ [10]) of the same compound?
Answer: Its EC50 is 7.04 µM (active).

Question: What about the AC50 [11] of the same compound?
Answer: The AC50 was 3.18 µM (active).

Question: What about the IC50 [12] of the same compound?
Answer: Its IC50 is 73 µM (inactive).

Question: And the AC50 [13]?
Answer: Its AC50 is < 0.195 µM (active).

Question: And the AC50 [14]?
Answer: Its AC50 is 3.32 µM (active).

Question: What about the EC50 [15] of the same compound?
Answer: The EC50 was 3.54 µM (active).

Question: And the AC50 (A-375)?
Answer: Its AC50 is 5.92 µM (active).

Question: What about the IC50 (Jurkat) of the same compound?
Answer: The IC50 was 0.26 µM (active).

Question: Which results are given for `CCOC(=O)COc1c(Cl)cc(/C=C2/S/C(=N/c3ccc(F)cc3)NC2=O)cc1OCC`?
Answer: IC50 [16]: > 100 µM (inactive); IC50 [17]: 9.35 µM (active); IC50 [18]: 54.2 µM (active); IC50 [19]: 1.4 µM (active); IC50 [20]: 74.8 µM (active); IC50 [21]: 10.5 µM (active); IC50 [22]: 66.4 µM (active)

Question: With `CCOC(=O)CCCCCC(=O)Nc1ccc2c(c1)CC(=O)N([C@@H](C)CO)C[C@H](C)[C@@H](CN(C)C(=O)Nc1ccc3c(c1)OCO3)O2` as the compound, how does the AC50 [23] read?
Answer: The AC50 was > 60 µM (inactive).
